Reference: US5223513A, “Quinoline derivatives, their production and use” (Takeda Chemical Industries, Ltd., priority 1989, dated 1993)

How the values were obtained:
[1] = target: T1, acyl-CoA : cholesterol acyltransferase (ACAT) (Rattus norvegicus, UniProt Q7TQM4); test: Acyl-CoA : Cholesterol Acyltransferase (ACAT) inhibitory activity; assay type: biochemical; settings: for inhibition at 1 µM: 10^-6 M of test compound, production of labeled cholesterol ester, read-out: ACAT Inhibition Rate (%); for IC50: calculated by plotting inhibition rates obtained at plural concentrations, read-out: 50% inhibitory concentration (IC50)
T1 construct: mucosal microsome fraction of the small intestine; from tissue; host or cells: mucosal microsome fraction of rat small intestine
T1 sequence (Q7TQM4 1-524): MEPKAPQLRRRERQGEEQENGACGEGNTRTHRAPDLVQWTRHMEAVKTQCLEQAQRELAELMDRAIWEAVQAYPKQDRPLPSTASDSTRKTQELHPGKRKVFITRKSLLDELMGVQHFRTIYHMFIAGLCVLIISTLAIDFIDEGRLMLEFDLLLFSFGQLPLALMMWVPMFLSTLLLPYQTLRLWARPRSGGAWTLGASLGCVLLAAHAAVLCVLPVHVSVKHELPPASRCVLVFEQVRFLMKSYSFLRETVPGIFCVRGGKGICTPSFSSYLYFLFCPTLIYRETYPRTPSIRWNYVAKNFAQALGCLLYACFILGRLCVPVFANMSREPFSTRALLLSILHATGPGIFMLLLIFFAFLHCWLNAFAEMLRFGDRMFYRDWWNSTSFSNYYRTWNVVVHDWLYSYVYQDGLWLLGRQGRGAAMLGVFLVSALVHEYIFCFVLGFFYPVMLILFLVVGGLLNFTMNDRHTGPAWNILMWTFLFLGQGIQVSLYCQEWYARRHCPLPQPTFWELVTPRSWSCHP
Method: The enzyme ACAT was prepared by the method of Heider et al. described in Journal of Lipid Research, Vol. 24, page 1127 (1982), from the mucosal microsome fraction of the small intestine of male, 6-week old Sprague-Dawley rats which had been fasted for 20 hours.
ACAT activity was calculated by the method of Helgerud et al. described in Journal of Lipid Research, Vol. 22, page 271 (1981), namely, by measuring the amount of the labeled cholesterol ester produced from [1-^14 C] oleoyl-CoA and endogenous cholesterol. […]

[2] = Plasma Cholesterol Lowering Activity in Cholesterol Fed Rat; assay type: in vivo, rat (Sarague-Dawely); settings: 1% cholesterol diet containing 0.0003% of test compound for 7 days; Example 3 dose 0.27 ± 0.02, Example 24 dose 0.24 ± 0.03 mg/kg/day; mean ± standard deviation; *p < 0.05 (t test vs control group 195 ± 32)
Method: To 7-week old, male Sarague-Dawely rats which were grouped according to body weight was fed 1% cholesterol diet containing 0.5% of cholic acid, 5% of olive oil and 0.0003% of a test compound for 7 days. Blood was collected from the rats during 8:30-10:00 am at the fed state, and the plasma cholesterol level was measured enzymatically. The amount of test compound consumed by rats was calculated on the basis of the amount of the diet consumed by the rats.

SMILES | inhibition at 1 µM [1] [%] | IC50 [1] [nM] | Cholesterol in Serum [2] [mg/dL]
CCn1c(=O)c(NC(=O)Nc2ccc(F)cc2F)c(-c2ccccc2Cl)c2cc(C)cc(C)c21 [Example 6, N-[4-(2-chlorophenyl)-1-ethyl-1,2-dihydro-6,8-di-methyl-2-oxo-3-quinolyl]-N'-(2,4-difluorophenyl)urea] | 97.9 | – | –
Cc1cccc(C(C)C)c1NC(=O)Nc1c(-c2ccccc2Cl)c2cc(Cl)ccc2n(C)c1=O [Example 2] | 99.2 | 16 | –
Cc1cc(C)c2c(c1)c(-c1ccccc1Cl)c(NC(=O)Nc1c(C)cccc1C(C)C)c(=O)n2C [Example 5, N-[4-(2-chlorophenyl)-1,2-dihydro-1,6,8-trimethyl-2-oxo-3-quinolyl]-N'-(2-isopropyl-6-methylphenyl)urea] | 98.2 | 18 | –
COc1nc2ccc(Cl)cc2c(-c2ccccc2Cl)c1NC(=O)Nc1ccc(F)cc1F [Example 9] | 89.6 | – | –
COc1cc(NC(=O)Nc2c(-c3ccccc3Cl)c3cc(C)c(C)cc3n(C)c2=O)cc(OC)c1OC(C)=O [Example 15, N-(4-acetoxy-3,5-di-methoxyphenyl) -N'-[4-(2-chlorophenyl)-1,2-dihydro-1,6,7-trimethyl-2-oxo-3-quinolyl]urea] | 90.1 | – | –
Cc1cc2c(-c3ccccc3C)c(NC(=O)Nc3ccc(F)cc3F)c(=O)n(C)c2cc1C [Example 10, N-(2,4-difluorophenyl)-N'-(1,2-dihydro-1,6,7-trimethyl-4-(2-methylphenyl)-2-oxo-3-quinolyl]urea] | 97.6 | 78 | –
Cc1cc(C)c2c(c1)c(-c1ccccc1Cl)c(NC(=O)Nc1ccc(F)cc1F)c(=O)n2C [Example 4, N-[4-(2-chlorophenyl)-1,2-dihydro-1,6,8-trimethyl-2-oxo-3-quinolyl]-N'-(2,4-difluorophenyl)urea] | 97.1 | – | –
Cc1cc2c(-c3ccccc3Cl)c(NC(=O)Nc3ccc(F)cc3F)c(=O)n(C)c2cc1C [Example 3, N-[4-(2-chlorophenyl)-1,6,7-trimethyl-1,2-dihydro-2-oxo-3-quinolyl]-N'-(2,4-difluorophenyl)urea] | 98.7 | 6.4 | 129 ± 19
Cn1c(=O)c(NC(=O)Nc2ccc(F)cc2F)c(-c2ccccc2)c2cc(Cl)ccc21 [Example 7, N-(6-chloro-1,2-dihydro-1-methyl-2-oxo-4-phenyl-3-quinolyl)-N'-(2,4-difluorophenyl)urea] | 77.9 | – | –
Cn1c(=O)c(NC(=O)Nc2ccc(F)cc2F)c(-c2ccccc2Cl)c2cc(Cl)ccc21 [Example 1] | 96.8 | – | –

Now from value to molecule, other results behind:

inhibition at 1 µM [1] [%] | IC50 [1] [nM] | SMILES | Cholesterol in Serum [2] [mg/dL]
85.4 | – | Cc1cc(C)c2nc(C)c(NC(=O)Nc3ccc(F)cc3F)c(-c3ccccc3Cl)c2c1 [Example 13, N-[4-(2-chlorophenyl)-2,6,8-trimethyl-3-quinolyl]-N'-(2,4-difluorophenyl)urea] | –
99.2 | 9.3 | Cc1cc2c(-c3ccccc3C)c(NC(=O)Nc3ccc(F)cc3F)c(=O)n(C)c2cc1Cl [Example 24, N-[7-chloro-1,2-dihydro-4-(2-methylphenyl)-1,6-dimethyl-2-oxo-3-quinolyl]-N'-(2,4-difluorophenyl)urea] | 113 ± 41
97.8 | 37 | CC(C)c1ccc2c(c1)c(-c1ccccc1Cl)c(NC(=O)Nc1ccc(F)cc1F)c(=O)n2C [Example 19, N-[4-(2-chlorophenyl)-1,2-dihydro-6-isopropyl-1-methyl-2-oxo-3-quinolyl]-N'-(2,4-difluorophenyl)urea] | –
96.1 | 35 | Cc1ccccc1-c1c(NC(=O)Nc2ccc(F)cc2F)c(=O)n(C)c2ccc(Cl)cc12 [Example 20, N-[6-chloro-1,2-dihydro-1-methyl-4-(2-methylphenyl)-2-oxo-3-quinolyl]-N'-(2,4-difluorophenyl)urea] | –
99 | 37 | COc1ccc(-c2c(NC(=O)Nc3c(C)cccc3C(C)C)c(=O)n(C)c3ccc(C)cc23)cc1OC [Example 22, N-[1,2-dihydro-4-(3,4-dimethoxyphenyl)-1,6-dimethyl-3-quinolyn]-N'-(2-isopropyl-6-methylphenyl)urea] | –
99.2 | 12 | CCc1ccc2c(c1)c(-c1ccccc1Cl)c(NC(=O)Nc1c(C)cccc1C(C)C)c(=O)n2C [Example 18, N-[4-(2-chlorophenyl)-1,2-dihydro-6-ethyl-1-methyl-2-oxo-3-quinolyl]-N'-(2-isopropyl-6-methylphenyl)urea] | –
96.6 | – | COc1ccc(-c2c(NC(=O)Nc3ccc(F)cc3F)c(=O)n(C)c3ccc(C)cc23)cc1OC [Example 11, N-(2,4-difluorophenyl)-N'-[1,2-dihydro-4-(3,4-di-methoxyphenyl) -1,6-dimethyl-2-oxo-3-quinolyl]urea] | –
96.5 | 25 | CCc1ccc2c(c1)c(-c1ccccc1Cl)c(NC(=O)Nc1ccc(F)cc1F)c(=O)n2C [Example 17, N-[4-(2-chlorophenyl)-1,2-dihydro-6-ethyl-1-methyl-2-oxo-3-quinolyl]-N'-(2,4-difluorophenyl)urea] | –
95.9 | – | COc1nc2c(C)cc(C)cc2c(-c2ccccc2Cl)c1NC(=O)Nc1ccc(F)cc1F [Example 12, N-[4-(2-chlorophenyl)-2-methoxy-6,8-dimethyl-3-quinolyl]-N -(2,4-difluorophenyl)urea] | –
99 | 41 | COc1ccc(-c2c(NC(=O)Nc3c(C)cccc3C(C)C)c(=O)n(C)c3ccc(Cl)cc23)cc1OC [Example 23] | –
99.4 | 17 | Cc1ccccc1-c1c(NC(=O)Nc2c(C)cccc2C(C)C)c(=O)n(C)c2ccc(Cl)cc12 [Example 21, N-[6-chloro-1,2-dihydro-1-methyl-4-(2-methylphenyl)-2-oxo-3-quinolyl]-N'-(2-isopropyl-6-methylphenyl)urea] | –
